Measurements published in US20220081444A1, “6,7-DIHYDRO-4H-PYRAZOLO[1,5-A]PYRAZINE INDOLE-2-CARBOXAMIDES ACTIVE AGAINST THE HEPATITIS B VIRUS (HBV)” (AiCuris GmbH & Co. KG, priority 2018, published 2022).
Where a name gives a salt, the structure may show the parent alone.

The molecules below were run on HBV. Conditions: Hepatitis B virus, HePAD38, 144 h, read-out: Cell Activity (EC50).

Compared with `O=C(c1cc2ccccc2[nH]1)N1CCn2nc(NC3CCOC3)cc2C1` (centres unmarked) [Example 1, 5-(1H-indole-2-carbonyl)-N-(oxolan-3-yl)-4H,5H,6H,7H-pyrazolo[1,5-a]pyrazin-2-amine], `O=C(c1cc2ccccc2[nH]1)N1CCn2nc(NCC3CCOC3)cc2C1` (centres unmarked) [Example 31, 5-(1H-indole-2-carbonyl)-N-[(oxolan-3-yl)methyl]-4H,5H,6H,7H-pyrazolo[1,5-a]pyrazin-2-amine] is lower in EC50: 1000 to 10000 nM for the first, under 1000 nM for the second. The second is the more potent here.

`O=C(c1cc2ccccc2[nH]1)N1CCn2nc(N[C@H]3CC[C@H](O)CC3)cc2C1` [Example 2, (1r,4r)-4-{[5-(1H-indole-2-carbonyl)-4H,5H,6H,7H-pyrazolo[1,5-a]pyrazin-2-yl]amino}cyclohexan-1-ol] and `O=C(c1cc2c(Cl)cccc2[nH]1)N1CCn2nc(NC3CCC(O)CC3)cc2C1` (centres unmarked) [Example 3, 4-{[5-(4-chloro-1H-indole-2-carbonyl)-4H,5H,6H,7H-pyrazolo[1,5-a]pyrazin-2-yl]amino}cyclohexan-1-ol] cannot be ordered by EC50: under 1000 nM for the first, under 1000 nM for the second.

Compared with `O=C(Nc1cc2n(n1)CCN(C(=O)c1cc3ccccc3[nH]1)C2)C1CNC1` [Example 4, N-[5-(1H-indole-2-carbonyl)-4H,5H,6H,7H-pyrazolo[1,5-a]pyrazin-2-yl]azetidine-3-carboxamide Hydrochloride], `O=C(Nc1cc2n(n1)CCN(C(=O)c1cc3ccccc3[nH]1)C2)C1CCNCC1` [Example 41, N-[5-(1H-indole-2-carbonyl)-4H,5H,6H,7H-pyrazolo[1,5-a]pyrazin-2-yl]piperidine-4-carboxamide Hydrochloride] is lower in EC50: 1000 to 10000 nM for the first, under 1000 nM for the second.

`O=C(c1cc2ccccc2[nH]1)N1CCn2nc(NS(=O)(=O)C3CC3)cc2C1` [Example 5, N-[5-(1H-indole-2-carbonyl)-4H,5H,6H,7H-pyrazolo[1,5-a]pyrazin-2-yl]cyclopropanesulfonamide] and `CS(=O)(=O)Nc1cc2n(n1)CCN(C(=O)c1cc3ccccc3[nH]1)C2` [Example 8, N-[5-(1H-indole-2-carbonyl)-4H,5H,6H,7H-pyrazolo[1,5-a]pyrazin-2-yl]methanesulfonamide] cannot be ordered by EC50: under 1000 nM for the first, under 1000 nM for the second.

`CC(C)(C)OC(=O)N1CC(C(=O)Nc2cc3n(n2)CCN(C(=O)c2cc4ccccc4[nH]2)C3)C1` [Example 7, tert-butyl 3-{[5-(1H-indole-2-carbonyl)-4H,5H,6H,7H-pyrazolo[1,5-a]pyrazin-2-yl]carbamoyl}azetidine-1-carboxylate] and `O=C(Nc1cc2n(n1)CCN(C(=O)c1cc3ccccc3[nH]1)C2)C1CCOC1` (centres unmarked) [Example 30, N-[5-(1H-indole-2-carbonyl)-4H,5H,6H,7H-pyrazolo[1,5-a]pyrazin-2-yl]oxolane-3-carboxamide] cannot be ordered by EC50: under 1000 nM for the first, under 1000 nM for the second.

`CC1Cn2nc(N)cc2CN1C(=O)c1cc2c(Cl)cccc2[nH]1` (centres unmarked) [Example 9, 5-(4-chloro-1H-indole-2-carbonyl)-6-methyl-4H,5H,6H,7H-pyrazolo[15-a]pyrazin-2-amine] and `CC1Cn2nc(N)cc2CN1C(=O)c1cc2ccccc2[nH]1` (centres unmarked) [Example 16, 5-(1H-indole-2-carbonyl)-6-methyl-4H,5H,6H,7H-pyrazolo[1,5-a]pyrazin-2-amine] cannot be ordered by EC50: under 1000 nM for the first, under 1000 nM for the second.

`CC1Cn2nc(NC(=O)C3CCOC3)cc2CN1C(=O)c1cc2ccccc2[nH]1` (centres unmarked) [Example 10, N-[5-(1H-indole-2-carbonyl)-6-methyl-4H,5H, 6H,7H-pyrazolo[1,5-a]pyrazin-2-yl]oxolane-3-carboxamide] and `CC1Cn2nc(NC(=O)C3CCOC3)cc2CN1C(=O)c1cc2c(Cl)cccc2[nH]1` (centres unmarked) [Example 11, N-[5-(4-chloro-1H-indole-2-carbonyl)-6-methyl-4H,5H,6H,7H-pyrazolo[1,5-a]pyrazin-2-yl]oxolane-3-carboxamide] cannot be ordered by EC50: under 1000 nM for the first, under 1000 nM for the second.

`CC1Cn2nc(NCC3CCOC3)cc2CN1C(=O)c1cc2ccccc2[nH]1` (centres unmarked) [Example 12, 5-(1H-indole-2-carbonyl)-6-methyl-N-[(oxolan-3-yl)methyl]-4H,5H,6H,7H-pyrazolo[1,5-a]pyrazin-2-amine] and `CC1Cn2nc(NCC3CCOC3)cc2CN1C(=O)c1cc2c(Cl)cccc2[nH]1` (centres unmarked) [Example 13, 5-(4-chloro-1H-indole-2-carbonyl)-6-methyl-N-[(oxolan-3-yl)methyl]-4H,5H,6H,7H-pyrazolo[1,5-a]pyrazin-2-amine] cannot be ordered by EC50: under 1000 nM for the first, under 1000 nM for the second.

`CC(=O)Nc1cc2n(n1)CCN(C(=O)c1cc3ccccc3[nH]1)C2` [Example 14, N-[5-(1H-indole-2-carbonyl)-4H,5H,6H,7H-pyrazolo[1,5-a]pyrazin-2-yl]acetamide] and `Nc1cc2n(n1)CCN(C(=O)c1cc3ccccc3[nH]1)C2` [Example 34, 5-(1H-indole-2-carbonyl)-4H,5H, 6H,7H-pyrazolo[1,5-a]pyrazin-2-amine] cannot be ordered by EC50: under 1000 nM for the first, under 1000 nM for the second.

`O=C(c1cc2ccccc2[nH]1)N1CCn2nc(NCC3CCOCC3)cc2C1` [Example 15, 5-(1H-indole-2-carbonyl)-N-[(oxan-4-yl)methyl]-4H,5H,6H,7H-pyrazolo[1,5-a]pyrazin-2-amine] and `O=C(Nc1cc2n(n1)CCN(C(=O)c1cc3ccccc3[nH]1)C2)C1CCOCC1` [Example 18, N-[5-(1H-indole-2-carbonyl)-4H,5H,6H,7H-pyrazolo[1,5-a]pyrazin-2-yl]oxane-4-carboxamide] cannot be ordered by EC50: under 1000 nM for the first, under 1000 nM for the second.

`CCc1cccc2[nH]c(C(=O)N3CCn4nc(NCC5CCOC5)cc4C3)cc12` (centres unmarked) [Example 17, 5-(4-ethyl-1H-indole-2-carbonyl)-N-[(oxolan-3-yl)methyl]-4H,5H,6H,7H-pyrazolo[1,5-a]pyrazin-2-amine] and `O=C(c1cc2c(Cl)cccc2[nH]1)N1CCn2nc(NCC3CCOC3)cc2C1` (centres unmarked) [Example 26, 5-(4-chloro-1H-indole-2-carbonyl)-N-[(oxolan-3-yl)methyl]-4H,5H,6H,7H-pyrazolo[1,5-a]pyrazin-2-amine] cannot be ordered by EC50: under 1000 nM for the first, under 1000 nM for the second.

`O=C(Nc1cc2n(n1)CCN(C(=O)c1cc3c(Cl)cccc3[nH]1)C2)C1CCOC1` (centres unmarked) [Example 19, N-[5-(4-chloro-1H-indole-2-carbonyl)-4H,5H,6H,7H-pyrazolo[1,5-a]pyrazin-2-yl]oxolane-3-carboxamide] and `CCc1cccc2[nH]c(C(=O)N3CCn4nc(NC(=O)C5CCOC5)cc4C3)cc12` (centres unmarked) [Example 24, N-[5-(4-ethyl-1H-indole-2-carbonyl)-4H,5H,6H,7H-pyrazolo[1,5-a]pyrazin-2-yl]oxolane-3-carboxamide] cannot be ordered by EC50: under 1000 nM for the first, under 1000 nM for the second.

`O=C(Nc1cc2n(n1)CCN(C(=O)c1cc3c(Cl)c(F)ccc3[nH]1)C2)C1CCOC1` (centres unmarked) [Example 20, N-[5-(4-chloro-5-fluoro-1H-indole-2-carbonyl)-4H,5H,6H,7H-pyrazolo[1,5-a]pyrazin-2-yl]oxolane-3-carboxamide] and `O=C(Nc1cc2n(n1)CCN(C(=O)c1cc3c(Cl)cc(F)cc3[nH]1)C2)C1CCOC1` (centres unmarked) [Example 21, N-[5-(4-chloro-6-fluoro-1H-indole-2-carbonyl)-4H,5H,6H,7H-pyrazolo[1,5-a]pyrazin-2-yl]oxolane-3-carboxamide] cannot be ordered by EC50: under 1000 nM for the first, under 1000 nM for the second.

`O=C(Nc1cc2n(n1)CCN(C(=O)c1cc3c(F)cc(F)cc3[nH]1)C2)C1CCOC1` (centres unmarked) [Example 22, N-[5-(4,6-difluoro-1H-indole-2-carbonyl)-4H,5H,6H,7H-pyrazolo[1,5-a]pyrazin-2-yl]oxolane-3-carboxamide] and `CCc1cc(F)cc2[nH]c(C(=O)N3CCn4nc(NC(=O)C5CCOC5)cc4C3)cc12` (centres unmarked) [Example 23, N-[5-(4-ethyl-6-fluoro-1H-indole-2-carbonyl)-4H,5H,6H,7H-pyrazolo[1,5-a]pyrazin-2-yl]oxolane-3-carboxamide] cannot be ordered by EC50: under 1000 nM for the first, under 1000 nM for the second.

`O=C(c1cc2c(Cl)cc(F)cc2[nH]1)N1CCn2nc(NCC3CCOC3)cc2C1` (centres unmarked) [Example 27, 5-(4-chloro-6-fluoro-1H-indole-2-carbonyl)-N-[(oxolan-3-yl)methyl]-4H,5H,6H,7H-pyrazolo[1,5-a]pyrazin-2-amine] and `O=C(c1cc2c(F)cc(F)cc2[nH]1)N1CCn2nc(NCC3CCOC3)cc2C1` (centres unmarked) [Example 28, 5-(4,6-difluoro-1H-indole-2-carbonyl)-N-[(oxolan-3-yl)methyl]-4H,5H,6H,7H-pyrazolo[1,5-a]pyrazin-2-amine] cannot be ordered by EC50: under 1000 nM for the first, under 1000 nM for the second.

`Nc1cc2n(n1)CCN(C(=O)c1cc3c(Cl)cccc3[nH]1)C2` [Example 32, 5-(4-chloro-1H-indole-2-carbonyl)-4H,5H,6H,7H-pyrazolo[1,5-a]pyrazin-2-amine] and `O=C(c1cc2c(Cl)cccc2[nH]1)N1CCn2nc(NS(=O)(=O)C3CC3)cc2C1` [Example 37, N-[5-(4-chloro-1H-indole-2-carbonyl)-4H,5H,6H,7H-pyrazolo[1,5-a]pyrazin-2-yl]cyclopropanesulfonamide] cannot be ordered by EC50: under 1000 nM for the first, under 1000 nM for the second.

`Nc1cc2n(n1)CCN(C(=O)c1cc3c(F)cc(F)cc3[nH]1)C2` [Example 33, 5-(4,6-difluoro-1H-indole-2-carbonyl)-4H,5H,6H,7H-pyrazolo[1,5-a]pyrazin-2-amine] and `O=C(c1cc2c(F)cc(F)cc2[nH]1)N1CCn2nc(NS(=O)(=O)C3CC3)cc2C1` [Example 35, N-[5-(4,6-difluoro-1H-indole-2-carbonyl)-4H,5H,6H,7H-pyrazolo[1,5-a]pyrazin-2-yl]cyclopropanesulfonamide] cannot be ordered by EC50: under 1000 nM for the first, under 1000 nM for the second.

`O=C(c1cc2c(Cl)c(F)ccc2[nH]1)N1CCn2nc(NS(=O)(=O)C3CC3)cc2C1` [Example 36, N-[5-(4-chloro-5-fluoro-1H-indole-2-carbonyl)-4H,5H,6H,7H-pyrazolo[1,5-a]pyrazin-2-yl]cyclopropanesulfonamide] and `O=C(c1cc2c(Cl)cc(F)cc2[nH]1)N1CCn2nc(NS(=O)(=O)C3CC3)cc2C1` [Example 38, N-[5-(4-chloro-6-fluoro-1H-indole-2-carbonyl)-4H,5H,6H,7H-pyrazolo[1,5-a]pyrazin-2-yl]cyclopropanesulfonamide] cannot be ordered by EC50: under 1000 nM for the first, under 1000 nM for the second.

`CCc1cc(F)cc2[nH]c(C(=O)N3CCn4nc(NS(=O)(=O)C5CC5)cc4C3)cc12` [Example 39, N-[5-(4-ethyl-6-fluoro-1H-indole-2-carbonyl)-4H,5H,6H,7H-pyrazolo[1,5-a]pyrazin-2-yl]cyclopropanesulfonamide] and `CCc1cccc2[nH]c(C(=O)N3CCn4nc(NS(=O)(=O)C5CC5)cc4C3)cc12` [Example 40, N-[5-(4-ethyl-1H-indole-2-carbonyl)-4H,5H,6H,7H-pyrazolo[1,5-a]pyrazin-2-yl]cyclopropanesulfonamide] cannot be ordered by EC50: under 1000 nM for the first, under 1000 nM for the second.
